Measurements: PubChem BioAssay AID328 (DTP/NCI, 2004)
Where “and” joins values, the source holds several entries; their conditions need not be identical. Equal values may be shown once. Toxic doses and inconclusive results are not listed. Rule for the calls: active = survival T/C of 150% or more; inactive = T/C below 125% in these data.

Test system: BDF1 mice, P388 leukemia ip, median survival T/C
Experiment: NCI In Vivo Anticancer Drug Screen. Data for tumor model P388 Leukemia (intraperitoneal) in B6D2F1 (BDF1) mice
Conditions: endpoint: median survival time, higher = longer survival
How it was run: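 Vehicle-dosed animals serve as the reference; survival of compound-dosed, tumour-implanted mice is divided by it.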

[1] = dose: 100.0 mg/kg/injection, schedule: Q01DX009 (ip), vehicle: saline
[2] = dose: 100.0 mg/kg/injection, schedule: Q04DX003 (ip), vehicle: saline
[3] = dose: 200.0 mg/kg/injection, schedule: Q01DX009 (ip), vehicle: saline
[4] = dose: 200.0 mg/kg/injection, schedule: Q04DX003 (ip), vehicle: saline
[5] = dose: 400.0 mg/kg/injection, schedule: Q01DX009 (ip), vehicle: saline
[6] = dose: 400.0 mg/kg/injection, schedule: Q04DX003 (ip), vehicle: saline
[7] = dose: 12.5 mg/kg/injection, schedule: Q01DX009 (ip), vehicle: saline with Tween-80
[8] = dose: 25.0 mg/kg/injection, schedule: Q01DX009 (ip), vehicle: saline with Tween-80
[9] = dose: 50.0 mg/kg/injection, schedule: Q01DX009 (ip), vehicle: saline with Tween-80
[10] = dose: 100.0 mg/kg/injection, schedule: Q01DX009 (ip), vehicle: saline with Tween-80
[11] = dose: 200.0 mg/kg/injection, schedule: Q01DX009 (ip), vehicle: saline with Tween-80
[12] = dose: 25.0 mg/kg/injection, schedule: Q01DX009 (ip), vehicle: water
[13] = dose: 25.0 mg/kg/injection, schedule: Q04DX003 (ip), vehicle: water
[14] = dose: 50.0 mg/kg/injection, schedule: Q01DX009 (ip), vehicle: other
[15] = dose: 50.0 mg/kg/injection, schedule: Q01DX009 (ip), vehicle: water
[16] = dose: 100.0 mg/kg/injection, schedule: Q01DX009 (ip), vehicle: other
[17] = dose: 200.0 mg/kg/injection, schedule: Q01DX009 (ip), vehicle: other
[18] = dose: 100.0 mg/kg/injection, schedule: Q04DX003 (ip), vehicle: Klucel (hydroxypropylcellulose) (HPC)
[19] = dose: 200.0 mg/kg/injection, schedule: Q04DX003 (ip), vehicle: Klucel (hydroxypropylcellulose) (HPC)
[20] = dose: 400.0 mg/kg/injection, schedule: Q04DX003 (ip), vehicle: Klucel (hydroxypropylcellulose) (HPC)
[21] = dose: 50.0 mg/kg/injection, schedule: Q04DX003 (ip), vehicle: water
[22] = dose: 100.0 mg/kg/injection, schedule: Q04DX003 (ip), vehicle: water

Measured: T/C

CCOC(=O)CSC(=S)SCC(=O)OCC
inactive: [1] 100 % of control | [2] 90 % of control | [3] 105 % of control | [4] 100 % of control | [5] 100 % of control | [6] 100 % of control

CC(=O)CC(C)=O.CC(=O)CC(C)=O.O.O.[Co]
inactive: dose: 22.0 mg/kg/injection, schedule: Q04DX003 (ip), vehicle: saline with Tween-80 105 % of control | dose: 33.0 mg/kg/injection, schedule: Q04DX003 (ip), vehicle: saline with Tween-80 113 % of control | dose: 75.0 mg/kg/injection, schedule: Q04DX003 (ip), vehicle: saline with Tween-80 102 % of control

N/C(=N\OC(=O)NC(Cl)=C(Cl)Cl)c1ccc(Cl)cc1
inactive: dose: 50.0 mg/kg/injection, schedule: Q01DX005 (ip), vehicle: saline with Tween-80 92 % of control | dose: 100.0 mg/kg/injection, schedule: Q01DX005 (ip), vehicle: saline with Tween-80 114 % of control

c1c(NC2=NCCO2)cc2c3c1CCCN3CCC2
inactive: [7] 104 % of control | [8] 118 % of control | [9] 113 % of control

Cc1cc2c(c(O)c1-c1c(C)cc(O)c3c1C(=O)C=CC3=O)C(=O)C=CC2=O
inactive: dose: 1.25 mg/kg/injection, schedule: Q01DX009 (ip), vehicle: saline with Tween-80 107 % of control | dose: 2.5 mg/kg/injection, schedule: Q01DX009 (ip), vehicle: saline with Tween-80 114 % of control | dose: 5.0 mg/kg/injection, schedule: Q01DX009 (ip), vehicle: saline with Tween-80 103 % of control

COc1ccc(C(=O)/C=C/c2ccc(OCc3ccccc3)cc2)c(OC)c1
inactive: [9] 103 % of control | [10] 94 % of control | [11] 90 % of control

C[n+]1c2ccccc2cc2ccccc21
inactive: [8] 118 % of control

CC1CCC2(C)CCC(C(C)C)C2(O)CC1 (stereo not given)
inactive: [1] 103 % of control | [2] 100 % of control | [4] 109 % of control | [5] 111 % of control | [6] 100 % of control

O=C(COc1cccc(Cl)c1)Nc1cccnc1
inactive: dose: 100.0 mg/kg/injection, schedule: Q01DX001 (ip), vehicle: Klucel (hydroxypropylcellulose) (HPC) 99 % of control | dose: 200.0 mg/kg/injection, schedule: Q01DX001 (ip), vehicle: Klucel (hydroxypropylcellulose) (HPC) 99 % of control

COc1ccc(CN(CCOC(=O)c2ccc(OC)cc2)CCN(CCOC(=O)c2ccc(OC)cc2)Cc2ccc(OC)cc2)cc1
inactive: dose: 25.0 mg/kg/injection, schedule: Q01DX009 (ip), vehicle: other 89 % of control | [12] 93 % of control | [13] 95 % of control and 100 % of control | [14] 91 % of control | [15] 101 % of control | [16] 86 % of control | [17] 94 % of control | dose: 200.0 mg/kg/injection, schedule: Q01DX009 (ip), vehicle: water 110 % of control | dose: 300.0 mg/kg/injection, schedule: Q04DX003 (ip), vehicle: water 107 % of control | dose: 400.0 mg/kg/injection, schedule: Q01DX009 (ip), vehicle: water 95 % of control

COC(=O)CCC#CC#CCCC(=O)OC
inactive: [18] 109 % of control | [19] 104 % of control | [20] 109 % of control

CC(C(=O)O)N(CC(=O)O)CC(=O)O.[Co+2].[NH-]CC(=O)O (stereo not given)
inactive: dose: 12.5 mg/kg/injection, schedule: Q01DX009 (ip), vehicle: water 99 % of control | [12] 108 % of control | [15] 105 % of control | [21] 103 % of control | [22] 96 % of control

CCCC1CC[N-]CC1.CCCC1CC[N-]CC1.CCCC1CC[N-]CC1.CCCC1CC[N-]CC1.[Cl][Ni][Cl]
inactive: dose: 2.0 mg/kg/injection, schedule: Q01DX009 (ip), vehicle: saline 116 % of control | dose: 4.0 mg/kg/injection, schedule: Q01DX009 (ip), vehicle: saline 97 % of control | dose: 6.25 mg/kg/injection, schedule: Q01DX009 (ip), vehicle: saline 112 % of control | dose: 8.0 mg/kg/injection, schedule: Q01DX009 (ip), vehicle: saline 116 % of control | dose: 50.0 mg/kg/injection, schedule: Q04DX003 (ip), vehicle: saline 100 % of control

C=CCN1C(=O)C=CC1=O
inactive: dose: 0.75 mg/kg/injection, schedule: Q01DX009 (ip), vehicle: saline 102 % of control | dose: 3.0 mg/kg/injection, schedule: Q01DX009 (ip), vehicle: saline 117 % of control

COc1ccc(C2=C/C(=C3\C(=O)Oc4ccccc4C3=O)SS2)cc1
inactive: [9] 90 % of control | [10] 92 % of control | [11] 90 % of control

NN1N=Nc2cccc3cccc1c23
inactive: dose: 50.0 mg/kg/injection, schedule: Q01DX009 (ip), vehicle: saline 105 % of control | [1] 110 % of control | dose: 110.0 mg/kg/injection, schedule: Q04DX003 (ip), vehicle: saline 100 % of control | dose: 170.0 mg/kg/injection, schedule: Q04DX003 (ip), vehicle: saline 95 % of control | [3] 110 % of control | dose: 255.0 mg/kg/injection, schedule: Q04DX003 (ip), vehicle: saline 95 % of control

CN(C)C1CCc2ccccc2C1OC(=O)/C=C/c1ccccc1 (stereo not given)
inactive: [8] 100 % of control | [9] 102 % of control | [10] 102 % of control

Nc1ccn(CC(=O)N2CCOCC2)c(=O)n1
inactive: [13] 106 % of control | [21] 103 % of control | [22] 89 % of control | dose: 200.0 mg/kg/injection, schedule: Q04DX003 (ip), vehicle: water 103 % of control | dose: 400.0 mg/kg/injection, schedule: Q04DX003 (ip), vehicle: water 94 % of control

CC(/C=N/N=C(N)N)=N\N=C(N)N
inactive: dose: 40.0 mg/kg/injection, schedule: Q01DX009 (ip), vehicle: water 86 % of control | dose: 60.0 mg/kg/injection, schedule: Q01DX010 (ip), vehicle: water 88 % of control

COc1ccc(NC(=O)Oc2c(C(C)C)cccc2C(C)C)cc1
inactive: [18] 100 % of control | [19] 91 % of control | [20] 100 % of control

Cc1ccccc1-n1c(C)nc2ccccc2c1=O
inactive: dose: 12.5 mg/kg/injection, schedule: Q01DX009 (ip), vehicle: Klucel (hydroxypropylcellulose) (HPC) 100 % of control | dose: 25.0 mg/kg/injection, schedule: Q01DX009 (ip), vehicle: Klucel (hydroxypropylcellulose) (HPC) 96 % of control | dose: 50.0 mg/kg/injection, schedule: Q01DX009 (ip), vehicle: Klucel (hydroxypropylcellulose) (HPC) 92 % of control | [18] 104 % of control | [19] 91 % of control

CC/C(C)=N\NC(=S)SC
inactive: dose: 3.13 mg/kg/injection, schedule: Q01DX009 (ip), vehicle: saline with Tween-80 98 % of control | dose: 6.25 mg/kg/injection, schedule: Q01DX009 (ip), vehicle: saline with Tween-80 102 % of control | [7] 102 % of control

CC(C)CCNc1ccc(NCCC(C)C)cc1
inactive: dose: 2.34 mg/kg/injection, schedule: Q01DX009 (ip), vehicle: alcohol 100 % of control | dose: 4.68 mg/kg/injection, schedule: Q01DX009 (ip), vehicle: alcohol 100 % of control | dose: 9.37 mg/kg/injection, schedule: Q01DX009 (ip), vehicle: alcohol 112 % of control | dose: 13.75 mg/kg/injection, schedule: Q04DX003 (ip), vehicle: alcohol 109 % of control | dose: 18.75 mg/kg/injection, schedule: Q01DX009 (ip), vehicle: alcohol 122 % of control | dose: 27.5 mg/kg/injection, schedule: Q04DX003 (ip), vehicle: alcohol 109 % of control

CCN(CC)c1c(-c2ccccc2)nnc2c3ccccc3nn12
inactive: [8] 100 % of control | [9] 88 % of control | [10] 100 % of control

O=C(O)CCN1CCCc2ccccc21
inactive: [14] 95 % of control | [16] 104 % of control | [17] 95 % of control
